Entries after “also recorded” stand apart in the source; their conditions may differ. Like-named read-outs stand apart in the source and are kept apart here. One block for each compound: values may come before it.
Columns and labels:
PDGFRα = PDGFRα (Homo sapiens, UniProt P16234); parameters: purchased Reaction Biology Corporation (Malvern, PA); method as in Lopez et al., 2013; conditions: at 1 µM, panel of 319 kinases; ref Lopez et al., 2013; cited from earlier work
FLT3 = biological target: T1, FLT3 (Homo sapiens, UniProt P36888); parameters: purchased Reaction Biology Corporation (Malvern, PA); method as in Lopez et al., 2013; conditions: at 1 µM, panel of 319 kinases; ref Lopez et al., 2013; cited from earlier work
T1 sequence (P36888 27-993): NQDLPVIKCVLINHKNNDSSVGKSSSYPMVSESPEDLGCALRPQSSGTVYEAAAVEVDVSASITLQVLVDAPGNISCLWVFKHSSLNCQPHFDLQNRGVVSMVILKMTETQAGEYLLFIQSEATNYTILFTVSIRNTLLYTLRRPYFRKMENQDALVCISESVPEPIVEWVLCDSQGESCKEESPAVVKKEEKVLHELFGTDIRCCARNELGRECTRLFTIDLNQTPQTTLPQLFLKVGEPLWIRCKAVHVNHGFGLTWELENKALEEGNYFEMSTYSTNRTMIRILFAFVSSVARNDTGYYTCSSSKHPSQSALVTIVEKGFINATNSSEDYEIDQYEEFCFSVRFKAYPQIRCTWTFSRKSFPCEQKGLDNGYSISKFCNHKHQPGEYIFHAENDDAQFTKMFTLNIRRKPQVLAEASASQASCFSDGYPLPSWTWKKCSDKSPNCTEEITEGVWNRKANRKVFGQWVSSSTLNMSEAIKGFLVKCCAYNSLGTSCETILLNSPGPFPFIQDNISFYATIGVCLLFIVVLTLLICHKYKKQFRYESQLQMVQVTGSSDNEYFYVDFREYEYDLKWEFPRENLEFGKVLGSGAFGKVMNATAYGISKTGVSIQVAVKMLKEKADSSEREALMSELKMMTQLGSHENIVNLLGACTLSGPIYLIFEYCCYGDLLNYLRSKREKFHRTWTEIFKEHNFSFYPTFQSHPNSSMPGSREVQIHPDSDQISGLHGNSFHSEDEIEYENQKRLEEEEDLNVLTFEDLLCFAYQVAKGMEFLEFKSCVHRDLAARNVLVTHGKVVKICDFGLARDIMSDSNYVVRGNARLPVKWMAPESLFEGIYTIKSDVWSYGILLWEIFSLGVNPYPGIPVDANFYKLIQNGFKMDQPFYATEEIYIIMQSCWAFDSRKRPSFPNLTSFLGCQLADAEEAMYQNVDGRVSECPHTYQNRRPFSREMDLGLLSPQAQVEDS

KIT = KIT (Homo sapiens, UniProt P10721); parameters: purchased Reaction Biology Corporation (Malvern, PA); method as in Lopez et al., 2013; conditions: at 1 µM, panel of 319 kinases; ref Lopez et al., 2013; cited from earlier work
PDGFRβ = PDGFRβ (Homo sapiens, UniProt P09619); parameters: purchased Reaction Biology Corporation (Malvern, PA); method as in Lopez et al., 2013; conditions: at 1 µM, panel of 319 kinases; ref Lopez et al., 2013; cited from earlier work
purified FLT3 WT = biological target: T2, purified FLT3 WT (Homo sapiens, UniProt P36888); assay: Radiolabeled purified kinase assay (Figure 1B)
T2 sequence (P36888 27-993): T1 sequence (P36888 27-993)

CSF1R = CSF1R (Homo sapiens, UniProt P07333); parameters: purchased Reaction Biology Corporation (Malvern, PA); method as in Lopez et al., 2013; conditions: at 1 µM, panel of 319 kinases; ref Lopez et al., 2013; cited from earlier work
AML patients [1] = test system: AML patients; parameters: method as in Cortes et al., 2013; conditions: monotherapy, Phase II trial; ref Cortes et al., 2013; cited from earlier work
HMC1.1 cells = assay: Caspase-3 activation (apoptosis), HMC1.1; assay type: cell-based, human; conditions: 48 hr, up to 2,500 nM
Description: Cells were fixed with 4% (vol/vol) paraformaldehyde (Electron Microscopy Sciences) and permeabilized with 100% (vol/vol) methanol (Electron Microscopy Sciences, Hatfield, PA) followed by staining with a FITC-conjugated antiactive caspase-3 antibody (BD Pharmingen, San Jose, CA). Cells were run on a BD LSRFortessa cell analyzer, and data were analyzed using FlowJo (Tree Star Inc., Ashland, OR). Percentage of live cells was determined by negative staining for activated caspase-3 (see Figure 2B,C).

[2] = test system: mpo+ myeloid cells in zebrafish embryos; assay: Zebrafish normal myelopoiesis, mpo WISH in posterior blood island; assay type: in vivo, Danio rerio (zebrafish); conditions: 10 μM, 6 to 30 hpf, read at 30 hpf, vs DMSO
Description: (§1) Figure 4. […] (N–P) Three categories of mpo transcription (N, normal; O, intermediate; P, severe) were defined based on the WISH results (three experiments). […] Scale bar equals 500 μm. Blue arrows indicate the pericardial edema, green arrows indicate tail shortening and curving, and red arrows indicate the FLT3-ITD AML mpo+ myeloid cells expansion. […] For all experiments: Zebrafish embryos were collected and kept in standard E3 medium at 28°C. Different concentrations of either drug were added to the E3 medium from 6 hr post fertilization (hpf) to 3 days post fertilization (dpf). Embryos treated with DMSO or 10 μM drug from 6 to 30 hpf were collected for mpo whole mount in situ hybridization (WISH) analysis. […] plasmid DNA containing FLT3/ITD sequence was microinjected into one-cell stage embryos, and the uninjected embryos were used as control. FLT3/ITD-injected embryos were treated with DMSO or 10 μM drug from 6 to 30 hpf.
(§2) Wild-type (WT) zebrafish were maintained under standard conditions, and embryos were staged as described ([He et al., 2014]). The study was approved by the Committee of the Use of Live Animals for Teaching and Research in The University of Hong Kong.

HMC1.1 cells (KIT V560G) = assay: Cell proliferation/viability assay, HMC1.1; assay type: cell-based, human; conditions: Homo sapiens; Kit V560 G, 48 hr, ± SEM
Description: (§3) Exponentially growing cells (5 × 10^3 cells per well) were plated in each well of a 96-well plate with 0.1 ml of RPMI 1640 + 10% (vol/vol) FCS containing the appropriate concentration of drug in triplicate, and cell viability was assessed after 48 hr as previously described ([Smith et al., 2012]). […] Log10-scale transformation of ratios, followed by conditional formatting using xcel spreadsheet software yielded the colored diagrams shown.

Ba/F3 Parental + IL3 = assay: Ba/F3 cell viability, Parental + IL3; assay type: cell-based; conditions: Mus musculus, BaF3; Ba/F3, 48 hr, ± SEM
Description: (§4) Stable Ba/F3 lines were generated by retroviral spinfection with the appropriate mutated plasmid as previously described ([Smith et al., 2012]).
as §3

zebrafish embryos = assay: Zebrafish embryonic development / WT morphology; assay type: in vivo, Danio rerio (zebrafish); conditions: 3 dpf, drug from 6 hpf
Description: as §1, §2

[3] = test system: normal bone marrow (BM) and stimulated peripheral blood (SPB) hematopoietic progenitors; assay: Colony-forming assay, normal BM and stimulated peripheral blood; assay type: cell-based, human
Source text: (§5) Primary AML blood samples and/or marrow aspirates were obtained on an IRB-approved protocol at the University of California, San Francisco. Informed consent was obtained in accordance with the Declaration of Helsinki. Mononuclear cells were purified by density centrifugation (Ficoll–Paque Plus, GE Healthsciences) before cryopreservation in 10% (vol/vol) DMSO or FCS (primary ITD and D835-mutant assays, Figure 3A–C) or immediate use in assays (Normal BM and SPB, Figure 3D–F). Normal BM and stimulated peripheral blood (SPB) samples were collected from donors at the UCSF oncology/hematology division. Cells were then suspended in MethoCult methylcellulose (Stem Cell Technologies, product no. H4435 Enriched, Canada) in 15-ml Falcon tubes, vigorously vortexed, bubbles settled over 10 min. Triplicates then plated via blunt-nosed syringe (1.1 ml each) into 3-cm dishes, avoiding bubble generation, and each dish placed in a larger 10-cm dish with water trough in an incubator (37°C, 5% CO2) for 13–14 days. Colonies were counted individually using traditional microscopy. CFU and BFU types reported separately (CFU-GEMM colonies counted as one of each). Results shown for FLT3 ITD primary blasts (Figure 3B) are a combination of leukemic blast colonies and BFU colonies.

[4] = test system: primary patient FLT3 D835 AML circulating blasts; assay: Colony-forming assay, primary patient FLT3-D835 AML blasts; assay type: cell-based, human; conditions: at 1,000 nM; ca. 120 for DMSO plates
Source text: as §5, with “each).” for “each). Results shown for FLT3 ITD primary blasts (Figure 3B) are a combination of leukemic blast colonies and BFU colonies.”

AML patients [5] = test system: AML patients; parameters: method as in Strati et al., 2014; conditions: ref Strati et al., 2014, cited from earlier work
Ba/F3 FLT3 ITD + D835F = assay: Ba/F3 cell viability, FLT3 ITD + D835F; assay type: cell-based; conditions: Mus musculus, Ba/F3, 48 hr, ± SEM
Description: as §4, §3
(§6) Mutations isolated in the screen were engineered into pMSCVpuroFLT3–ITD by QuikChange mutagenesis (Stratagene, La Jolla, CA) as previously described ([Smith et al., 2012]).

[6] = test system: MV4;11 cells (FLT3-ITD homozygous); assay: Cell proliferation/viability assay, MV4;11; assay type: cell-based; conditions: Homo sapiens, 48 hr, ± SEM
Description: as §3

[7] = test system: FLT3/ITD-injected zebrafish embryos; assay: Zebrafish FLT3/ITD-induced mpo+ myeloid cell expansion; assay type: in vivo, Danio rerio (zebrafish); conditions: 10 μM, 6 to 30 hpf, read at 30 hpf
Description: as §1, §2

[8] = test system: primary patient FLT3-ITD+ AML circulating blasts; assay: Colony-forming assay, primary patient FLT3-ITD+ AML blasts; assay type: cell-based, human; conditions: at 1,000 nM; ca. 1,200 CFUs in DMSO plates
Source text: as §5, with “each).” for “each). Results shown for FLT3 ITD primary blasts (Figure 3B) are a combination of leukemic blast colonies and BFU colonies.”

Ba/F3 FLT3 ITD + A848P = assay: Ba/F3 cell viability, FLT3 ITD + A848P; assay type: cell-based; conditions: Mus musculus, Ba/F3, 48 hr, ± SEM
Description: as §4, §3, §6

p-KIT in HMC1.1 cells = biological target: T3, p-KIT in HMC1.1 cells (Homo sapiens, UniProt P10721, V560G); assay: Immunoblot of p-KIT in HMC1.1; assay type: cell-based; conditions: immunoblot, 90-min incubation
T3 construct: endogenous in cells; host or cells: HMC1.1

KIT phosphorylation = test system: KIT phosphorylation; parameters: method as in Griswold et al., 2004; conditions: ref Griswold et al., 2004; cited from earlier work

Chain of PDGFRα (P16234 24-1089): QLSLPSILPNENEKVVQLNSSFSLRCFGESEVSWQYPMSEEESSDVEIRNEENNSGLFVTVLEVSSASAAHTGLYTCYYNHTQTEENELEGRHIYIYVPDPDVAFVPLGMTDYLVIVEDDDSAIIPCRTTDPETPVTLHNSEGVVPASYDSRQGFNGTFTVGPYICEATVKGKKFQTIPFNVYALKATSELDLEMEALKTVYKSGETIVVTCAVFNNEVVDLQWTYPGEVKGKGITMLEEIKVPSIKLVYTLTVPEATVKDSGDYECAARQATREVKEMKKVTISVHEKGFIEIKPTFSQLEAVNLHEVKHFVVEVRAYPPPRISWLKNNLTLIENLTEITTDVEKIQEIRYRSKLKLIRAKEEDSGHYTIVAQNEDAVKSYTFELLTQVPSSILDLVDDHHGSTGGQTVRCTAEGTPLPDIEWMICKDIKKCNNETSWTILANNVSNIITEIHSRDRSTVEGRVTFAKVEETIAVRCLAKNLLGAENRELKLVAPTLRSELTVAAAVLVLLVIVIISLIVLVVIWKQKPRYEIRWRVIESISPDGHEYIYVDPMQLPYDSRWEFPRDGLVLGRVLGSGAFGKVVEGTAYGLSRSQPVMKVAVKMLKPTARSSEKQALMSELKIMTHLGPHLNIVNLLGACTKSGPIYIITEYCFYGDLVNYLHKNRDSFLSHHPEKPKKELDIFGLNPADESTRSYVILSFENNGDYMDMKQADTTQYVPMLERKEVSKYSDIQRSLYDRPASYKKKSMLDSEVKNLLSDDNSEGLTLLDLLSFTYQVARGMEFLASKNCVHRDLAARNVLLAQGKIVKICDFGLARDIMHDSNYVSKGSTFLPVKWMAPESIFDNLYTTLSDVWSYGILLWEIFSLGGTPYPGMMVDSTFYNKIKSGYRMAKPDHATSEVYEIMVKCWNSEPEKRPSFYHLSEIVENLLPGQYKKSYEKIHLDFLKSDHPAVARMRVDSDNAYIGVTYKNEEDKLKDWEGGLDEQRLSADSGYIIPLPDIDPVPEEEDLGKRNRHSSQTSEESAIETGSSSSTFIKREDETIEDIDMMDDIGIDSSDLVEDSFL
Chain of KIT (P10721 26-976): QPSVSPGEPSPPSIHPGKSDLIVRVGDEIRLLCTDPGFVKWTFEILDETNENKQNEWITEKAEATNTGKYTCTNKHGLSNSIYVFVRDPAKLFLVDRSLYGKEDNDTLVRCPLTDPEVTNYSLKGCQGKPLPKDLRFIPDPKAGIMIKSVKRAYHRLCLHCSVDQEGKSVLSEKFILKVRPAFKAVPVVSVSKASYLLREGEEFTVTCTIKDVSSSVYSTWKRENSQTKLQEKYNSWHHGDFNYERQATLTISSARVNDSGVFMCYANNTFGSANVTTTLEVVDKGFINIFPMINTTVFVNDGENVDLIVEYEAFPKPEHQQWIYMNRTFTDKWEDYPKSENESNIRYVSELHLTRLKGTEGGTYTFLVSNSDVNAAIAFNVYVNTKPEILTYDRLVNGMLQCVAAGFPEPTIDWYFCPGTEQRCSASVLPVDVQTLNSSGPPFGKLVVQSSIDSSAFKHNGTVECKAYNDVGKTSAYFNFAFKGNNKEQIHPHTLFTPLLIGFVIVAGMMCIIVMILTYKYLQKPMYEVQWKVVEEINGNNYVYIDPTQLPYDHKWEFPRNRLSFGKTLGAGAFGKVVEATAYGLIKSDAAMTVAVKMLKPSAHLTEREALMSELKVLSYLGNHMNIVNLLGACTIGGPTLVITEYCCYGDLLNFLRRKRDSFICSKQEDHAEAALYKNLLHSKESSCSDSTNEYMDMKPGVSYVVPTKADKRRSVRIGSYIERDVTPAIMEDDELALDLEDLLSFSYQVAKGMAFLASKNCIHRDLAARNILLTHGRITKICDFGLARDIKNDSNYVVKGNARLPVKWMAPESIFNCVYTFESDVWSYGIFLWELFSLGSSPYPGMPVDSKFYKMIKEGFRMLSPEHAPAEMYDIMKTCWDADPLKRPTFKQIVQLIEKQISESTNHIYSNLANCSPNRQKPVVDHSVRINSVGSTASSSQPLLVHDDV
T3 sequence (P10721 26-976 V560G): as the sequence (P10721 26-976) above, with V535G counted along it
Chain of CSF1R (P07333 20-972): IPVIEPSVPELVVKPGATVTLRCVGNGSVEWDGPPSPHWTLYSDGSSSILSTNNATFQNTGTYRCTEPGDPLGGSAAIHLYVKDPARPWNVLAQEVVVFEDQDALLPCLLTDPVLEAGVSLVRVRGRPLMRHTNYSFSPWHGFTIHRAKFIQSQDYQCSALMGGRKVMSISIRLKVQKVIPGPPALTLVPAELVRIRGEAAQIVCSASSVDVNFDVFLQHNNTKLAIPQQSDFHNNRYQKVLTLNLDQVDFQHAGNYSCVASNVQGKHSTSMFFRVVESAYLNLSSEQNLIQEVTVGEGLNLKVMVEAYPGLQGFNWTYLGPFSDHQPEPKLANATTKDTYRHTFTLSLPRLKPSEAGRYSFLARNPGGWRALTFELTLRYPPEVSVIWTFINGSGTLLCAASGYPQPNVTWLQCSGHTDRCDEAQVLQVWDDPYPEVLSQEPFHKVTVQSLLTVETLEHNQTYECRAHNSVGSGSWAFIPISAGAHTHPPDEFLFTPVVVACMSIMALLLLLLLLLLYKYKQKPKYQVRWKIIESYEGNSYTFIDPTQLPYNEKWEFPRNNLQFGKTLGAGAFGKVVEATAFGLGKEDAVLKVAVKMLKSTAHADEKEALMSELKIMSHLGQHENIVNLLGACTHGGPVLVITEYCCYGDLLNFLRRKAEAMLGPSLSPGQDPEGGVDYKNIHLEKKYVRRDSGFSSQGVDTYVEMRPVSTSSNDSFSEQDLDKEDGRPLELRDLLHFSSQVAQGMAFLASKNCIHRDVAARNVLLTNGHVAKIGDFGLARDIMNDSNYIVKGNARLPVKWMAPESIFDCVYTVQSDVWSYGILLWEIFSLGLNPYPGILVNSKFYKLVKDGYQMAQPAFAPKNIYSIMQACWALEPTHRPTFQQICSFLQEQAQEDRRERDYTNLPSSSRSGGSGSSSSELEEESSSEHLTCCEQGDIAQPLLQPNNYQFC
Chain of PDGFRβ (P09619 33-1106): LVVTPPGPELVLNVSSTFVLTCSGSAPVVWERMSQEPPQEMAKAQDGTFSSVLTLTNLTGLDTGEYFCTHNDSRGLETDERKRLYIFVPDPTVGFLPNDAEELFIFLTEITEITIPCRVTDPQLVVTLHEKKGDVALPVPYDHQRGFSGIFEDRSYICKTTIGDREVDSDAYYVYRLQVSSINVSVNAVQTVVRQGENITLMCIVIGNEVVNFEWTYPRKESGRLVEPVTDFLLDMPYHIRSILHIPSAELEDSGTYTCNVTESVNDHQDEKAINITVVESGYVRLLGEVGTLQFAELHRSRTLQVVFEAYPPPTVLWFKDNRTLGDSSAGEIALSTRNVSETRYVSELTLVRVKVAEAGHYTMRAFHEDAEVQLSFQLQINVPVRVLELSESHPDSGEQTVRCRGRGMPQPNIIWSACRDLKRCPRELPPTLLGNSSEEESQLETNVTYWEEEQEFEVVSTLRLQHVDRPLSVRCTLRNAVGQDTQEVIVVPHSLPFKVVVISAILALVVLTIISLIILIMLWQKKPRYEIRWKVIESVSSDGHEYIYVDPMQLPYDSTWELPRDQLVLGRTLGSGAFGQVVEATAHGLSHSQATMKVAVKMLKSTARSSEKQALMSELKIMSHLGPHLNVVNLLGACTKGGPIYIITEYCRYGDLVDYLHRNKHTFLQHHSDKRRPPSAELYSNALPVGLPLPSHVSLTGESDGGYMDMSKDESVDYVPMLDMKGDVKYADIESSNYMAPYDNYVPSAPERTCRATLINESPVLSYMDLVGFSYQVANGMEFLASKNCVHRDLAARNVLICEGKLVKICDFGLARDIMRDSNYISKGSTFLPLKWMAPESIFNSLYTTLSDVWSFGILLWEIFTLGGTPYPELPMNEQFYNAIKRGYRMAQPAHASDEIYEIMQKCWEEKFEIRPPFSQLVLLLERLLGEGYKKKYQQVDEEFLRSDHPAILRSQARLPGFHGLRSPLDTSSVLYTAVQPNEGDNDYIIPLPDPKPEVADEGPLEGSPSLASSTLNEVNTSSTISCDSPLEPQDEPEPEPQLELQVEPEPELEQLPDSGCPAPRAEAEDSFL

- IC50 (purified FLT3 WT): 524 ± 94 nM
SMILES: CC(C)C[C@@H]1NC(=O)c2c1c1c3ccccc3n(CCCCN)c1c1[nH]c3ccccc3c21 [Star 12]
- inhibition of PDGFRα (PDGFRα): < 10%
- inhibition of FLT3 (FLT3): 57%
- inhibition of KIT (KIT): < 10%
- inhibition of PDGFRβ (PDGFRβ): < 10%
- inhibition of CSF1R (CSF1R): < 10%

SMILES: CC(C)(C)c1cc(NC(=O)Nc2ccc(-c3cn4c(n3)sc3cc(OCCN5CCOCC5)ccc34)cc2)no1.Cl.Cl [AC220, N-(5-tert-Butyl-isoxazol-3-yl)-N'-{4-[7-(2-morpholin-4-yl-ethoxy)imidazo[2,1-b][1,3]benzothiazol-2-yl]phenyl}urea Dihydrochloride]
- CR rate (AML patients [1]): 50%
- CRi rate (AML patients [1]): 45%

SMILES: CO[C@@H]1[C@H](N(C)C(=O)c2ccccc2)C[C@H]2O[C@]1(C)n1c3ccccc3c3c4c(c5c6ccccc6n2c5c31)C(=O)NC4 [PKC412, N-benzoylstaurosporine, reference compound]
- apoptosis/toxicity (caspase-3) in KIT-addicted HMC1.1 cells (HMC1.1 cells): potent toxicity
- effect on mpo+ myeloid cells development in the PBI [2]: statistically significant granulogenesis/myelosuppression; also recorded: statistically significant suppression of myelopoiesis
- IC50 (HMC1.1 cells (KIT V560G)): 354 ± 60 nM
- IC50 (Ba/F3 Parental + IL3): 243 ± 73 nM
- effect on zebrafish embryonic development / morphology (zebrafish embryos): substantial morphological defects to the heart at 1 μM
- raw colony numbers, normal BM ([3]; at 1,000 nM): zero in most PKC412-treated replicates
- effect on normal hematopoietic colony formation (CFU and BFU) ([3]; normal BM and SPB donors, up to 1,000 nM): eliminates most normal hematopoietic colony forming potential at 1 mM; also recorded: dose-dependent inhibition of colony formation
- raw colony numbers, FLT3 D835Y blasts [4]: ca. 25
- CR rate (AML patients [5]; combined with cytotoxic agents): 25%
- incomplete recovery of peripheral blood counts (CRi) rate (AML patients [5]; combined with cytotoxic agents): 20%
- patients developing grade 3/4 myelosuppression (AML patients [5]; combined with cytotoxic agents): over 90%
- complete remission (CR), single agent (AML patients [5]; single agent Phase II trial): failed to achieve a single complete remission
- IC50 (Ba/F3 FLT3 ITD + D835F): 9 ± 3 nM
- IC50 [6]: 16 ± 5 nM
- effect on FLT3/ITD-induced mpo+ myeloid cells expansion [7]: efficaciousness similar to Star 27
- raw colony numbers, FLT3-ITD+ blasts [8]: ca. 20
- IC50 (Ba/F3 FLT3 ITD + A848P): 9 ± 6 nM
- p-KIT and downstream signaling inhibition in HMC1.1 cells (p-KIT in HMC1.1 cells): inhibited p-KIT and downstream signaling to a greater degree

SMILES: COc1cc2c(N3CCN(C(=O)Nc4ccc(OC(C)C)cc4)CC3)ncnc2cc1OCCCN1CCCCC1 [MLN518]
- IC50 (KIT phosphorylation): 170 nM

— paper PMC4307180, “Overcoming myelosuppression due to synthetic lethal toxicity for FLT3-targeted acute myeloid leukemia therapy” (eLife, 2014)
